The structures appear in SMILES notation.

Chain of High affinity nerve growth factor receptor (P04629 whole entry): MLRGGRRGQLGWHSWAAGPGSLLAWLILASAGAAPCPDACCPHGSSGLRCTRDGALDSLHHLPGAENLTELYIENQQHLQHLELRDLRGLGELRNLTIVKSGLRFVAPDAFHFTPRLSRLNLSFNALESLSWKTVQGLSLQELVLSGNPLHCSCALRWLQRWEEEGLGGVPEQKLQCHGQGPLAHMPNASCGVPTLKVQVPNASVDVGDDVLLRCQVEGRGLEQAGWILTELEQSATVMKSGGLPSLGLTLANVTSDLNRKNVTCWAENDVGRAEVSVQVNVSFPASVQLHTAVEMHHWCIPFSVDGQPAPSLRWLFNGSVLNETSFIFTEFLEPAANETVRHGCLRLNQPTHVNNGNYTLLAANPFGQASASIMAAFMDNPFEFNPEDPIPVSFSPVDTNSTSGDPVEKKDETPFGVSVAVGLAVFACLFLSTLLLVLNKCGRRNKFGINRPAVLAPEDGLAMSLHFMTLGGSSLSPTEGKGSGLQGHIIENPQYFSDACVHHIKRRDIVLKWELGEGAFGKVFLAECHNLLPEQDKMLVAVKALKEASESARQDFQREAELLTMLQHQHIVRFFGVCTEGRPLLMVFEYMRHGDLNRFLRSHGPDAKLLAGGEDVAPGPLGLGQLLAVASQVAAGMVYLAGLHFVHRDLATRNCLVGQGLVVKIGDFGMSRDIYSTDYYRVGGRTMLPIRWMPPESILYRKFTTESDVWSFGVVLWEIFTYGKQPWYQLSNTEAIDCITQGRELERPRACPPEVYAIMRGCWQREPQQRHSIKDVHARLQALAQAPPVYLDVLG

The assay has as its target High affinity nerve growth factor receptor (Homo sapiens, UniProt P04629). Briefly: Inhibition Assay: A testing platform for TrkAWT kinase activity was established based on Homogeneous Time-Resolved Fluorescence (HTRF) assay, and the activities of the compounds were tested using the platform. The compounds were subjected to five-fold gradient dilution for eight times with 100% DMSO with a starting concentration of 200 μM (9 concentrations in total). 4 μL of diluted sample for ….
In general, IC50 refers to the concentration that gives 50% inhibition. A higher IC50 goes with weaker potency. `Nc1nn2ccc3nc2c1C(=O)NCCCn1cc(F)cc(c1=O)[C@H]1C[C@H](F)CN31` displayed an IC50 of 0.23 nM.

The molecule `C[C@@H]1CCc2ncc(F)cc2[C@H]2C[C@H](F)CN2c2ccn3nc(N)c(c3n2)C(=O)N1` showed an IC50 of 0.23 nM. `Nc1nn2ccc3nc2c1C(=O)NCCOc1ncc(F)cc1C1CCCN31` (stereo not drawn) returned a half-maximal inhibitory concentration (IC50) of 0.8 nM.

Source of the values: ChEMBL document CHEMBL5728685, “Macrocycle containing aminopyrazole and pyrimidine and pharmaceutical composition and use thereof” (2021).
